Measurements from PMC6270814, “Effects of Ursolic Acid Derivatives on Caco-2 Cells and Their Alleviating Role in Streptozocin-Induced Type 2 Diabetic Rats” (Molecules, 2014).

Key:
[1] = system: STZ-induced diabetic rats; test: Fasting blood glucose in STZ-induced diabetic rats, 4 weeks treatment; assay type: in vivo, rat
Description: Adult male albino rats of Sprague-Dawley rats (180–220 g) were obtained from the Guangdong Medical Lab Animal Center, and maintained under standard laboratory conditions in a temperature (25–30 °C) and light-controlled (12-h light/dark cycle) room with 35%–60% humidity. The animals were acclimatized for 10 days before the experiments and provided with rodent chow and water ad libitum. The investigation was conducted in accordance with the Guide for the Care and Use of Laboratory Animals and approved by the institutional Animal Ethics Committee.
(§1) Diabetes was induced by a single intraperitoneal injection of streptozotocin (Sigma-Aldrich, St. Louis, MO, USA) at a dose of 65 mg/kg body weight. STZ was dissolved in 0.1 M cold citrate buffer, pH 4.5. Control group were injected with citrate buffer alone. After 7 days for the development of diabetes, plasma glucose levels were determined of each rat. Rats with fasting blood glucose (FBG) range of above 16.7 mmol/L were considered as DM rats and were used for further study.
(§2) According to the body weight and plasma glucose levels the rats were divided randomly into seven groups with six rats each and treated as follows: • Group I: Normal rats treated with 0.5% CMC-Na (2 mL/200 g body weight). • Group II: Diabetic rats treated with 0.5% CMC-Na. • Group III: Diabetic rats treated with 10 mg/kg of glibenclamide. • Group IV: Diabetic rats treated with 100 mg/kg of compound 1 (UA). • Group V: Diabetic rats treated with 100 mg/kg of compound 10. • Group VI: Diabetic rats treated with 100 mg/kg of compound 11. • Group VII: Diabetic rats treated with 100 mg/kg of compound 12.
(§3) The treatment was continued daily for 28 days. Blood glucose levels and body weight were measured every week to ascertain the status of diabetes. After 4 weeks of treatment, the animals were fasted for 12 h and sacrificed by cervical dislocation under mild anaesthetization, blood was collected into heparinized tubes and centrifuged at 2,000 rpm for 10 min. Livers and kidneys were removed, washed and homogenized in ice-cold normal saline. This homogenates were centrifuged at 3,000 rpm for 10 min at 4 °C, and the supernatants were collected for the estimate of antioxidant markers.
(§4) Fasting blood glucose levels were estimated on days 0, 7, 14, 28 with the single touch glucometer (Life Scan, Johnson & Johnson Company, New Brunswick, NJ, USA). Serum insulin level was measured by use of a commercial immunoassay kit by enzyme linked immunosorbent assay (Uscn. Life Science Inc., Wuhan, China). Serum total protein, albumin, triglycerides (TG), total cholesterol (TC), high-density lipoprotein cholesterol (HDL-C), and low-density lipoprotein cholesterol (LDL-C) were measured with an automatic biochemical analyzer (Sinnowa D240, Nanjing, China).

[2] = system: STZ-induced diabetic rats; test: Body weight and daily food intake of STZ-induced diabetic rats; assay type: in vivo, rat; conditions: compounds 100 mg/kg, glibenclamide 10 mg/kg, oral
Description: as §1, §2, §3

[3] = system: STZ-induced diabetic rats; test: Serum biochemical parameters (insulin, total protein, albumin) in STZ-induced diabetic rats; assay type: in vivo, rat; conditions: 4 weeks, compounds 100 mg/kg, glibenclamide 10 mg/kg
Description: as §1, §2, §3, §4

[4] = system: STZ-induced diabetic rats; test: Serum lipid profile (TG, TC, LDL-C, HDL-C) in STZ-induced diabetic rats; assay type: in vivo, rat; conditions: 4 weeks, compounds 100 mg/kg, glibenclamide 10 mg/kg
Description: as §1, §2, §3, §4

[5] = system: STZ-induced diabetic rats; test: Oxidative stress markers (GSH, SOD, MDA) in liver and kidney of STZ-induced diabetic rats; assay type: in vivo, rat; conditions: 4 weeks
Description: as §1, §2, §3
The tissue homogenates of liver and kidney were used for the estimate of antioxidant markers. Glutathione (GSH) level was measured with 5, 5'-dithiobis-(2-nitrobenzoic acid) (DTNB) as described by Sedlak and Lindsay. Superoxide dismutase (SOD) activity was assessed according to the method of Sinha. Malondialdehyde (MDA) activity was estimated with the thiobarbituric acid method.

Caco-2 cells = test: MTT cytotoxicity assay on Caco-2 cells; assay type: cell-based, Human; conditions: Homo sapiens, 24 h, mean ± SD, n = 4, read-out: Inhibition Rate %
Description: Human intestinal Caco-2 cells (ATCC, Rockville, MD, USA) were incubated at 37 °C in a humidified atmosphere of 5% CO2 in air. The cells were cultured in Dulbecco’s […] medium (DMEM) with 10% heat-inactivated fetal bovine serum, 1% non-essential amino acids, 1% L-glutamine, 1% penicillin/streptomycin (Gibco Life Technologies, Grand Island, NY, USA). The cells were sub-cultured at confluence by 0.05% trypsin-0.5 mM EDTA treatment before they were applied in the experiment.
A MTT test was conducted to determine the possible toxicity of UA and its derivatives to Caco-2 cells. Briefly, cells were seeded at a density of 1 × 10^4 cells/mL in a 96-well plate and incubated for 24 h. The next day, cells were incubated with vehicle (0.1% DMSO) and compounds at 100, 50, 25, 12.5 μmol/L for 24 h, and then 5 g/L MTT solution (20 μL) was added for 4 h. Absorbance at 570 nm was measured using a Multimodel Plate Reader (Infinite 200, Tecan, Mannedorf, Switzerland).

## COc1ccc(Cl)cc1C(=O)NCCc1ccc(S(=O)(=O)NC(=O)NC2CCCCC2)cc1 [Glibenclamide, reference compound]
[1]; STZ diabetic rats, Week 0 (before treatment), compounds 100 mg/kg, glibenclamide 10 mg/kg, n = 6
  Fasting Blood Glucose Level, Week 0: 338.40 ± 16.38 mg/dL
[1]; STZ diabetic rats, Week 1, compounds 100 mg/kg, glibenclamide 10 mg/kg daily, n = 6
  Fasting Blood Glucose Level, Week 1: 271.80 ± 18.36 mg/dL
[1]; STZ diabetic rats, Week 2, compounds 100 mg/kg, glibenclamide 10 mg/kg daily, n = 6
  Fasting Blood Glucose Level, Week 2: 183.60 ± 11.70 mg/dL
[1]; STZ diabetic rats, Week 3, compounds 100 mg/kg, glibenclamide 10 mg/kg daily, n = 6
  Fasting Blood Glucose Level, Week 3: 216.00 ± 9.72 mg/dL
[1]; STZ diabetic rats, Week 4, compounds 100 mg/kg, glibenclamide 10 mg/kg daily, n = 6
  Fasting Blood Glucose Level, Week 4: 203.40 ± 13.50 mg/dL
[1]; end of the 4 week treatment, compound 10 100 mg/kg, glibenclamide 10 mg/kg
  decrease in blood glucose levels as compared with diabetic control: 54.4%
[2]
  daily food intake vs untreated diabetic rats: reduce daily food intake significantly
[3]
  serum albumin level vs diabetic control: increased significantly
  serum insulin level vs diabetic control: increased significantly
  serum total protein level vs diabetic control: increased significantly
[4]
  serum TC level vs diabetic control: significantly decreased
  serum TG level vs diabetic control: significantly decreased
[5]; liver and kidney of STZ diabetic rats
  SOD level in the liver and kidney: great improvement
[5]; liver of STZ diabetic rats
  GSH level in liver: significant effects
[5]; liver of STZ diabetic rats, daily administration
  MDA level in the liver: obviously down-regulated

## CC(=O)O[C@H]1CC[C@@]2(C)C(CC[C@]3(C)C2CC=C2C4[C@@H](C)[C@H](C)CC[C@]4(C(=O)Nc4ccc(F)cc4)CC[C@]23C)C1(C)C (some centres unmarked) [Compound 3]
Caco-2 cells
  inhibition at 100 µM: 8.65 ± 3.49%

## CC(=O)O[C@H]1CC[C@@]2(C)C(CC[C@]3(C)C2CC=C2C4[C@@H](C)[C@H](C)CC[C@]4(C(=O)Nc4ccccc4Cl)CC[C@]23C)C1(C)C (some centres unmarked) [Compound 7]
Caco-2 cells
  inhibition at 100 µM: 8.14 ± 3.81%

## O=C(CCc1ccc(O)cc1)c1c(O)cc(O)cc1O [Phloretin, reference compound]
Caco-2 cells
  inhibition at 100 µM: 4.7 ± 2.59%

## CC(=O)O[C@H]1CC[C@@]2(C)C(CC[C@]3(C)C2CC=C2C4[C@@H](C)[C@H](C)CC[C@]4(C(=O)Nc4ccc(Cl)cc4)CC[C@]23C)C1(C)C (some centres unmarked) [Compound 4]
Caco-2 cells
  inhibition at 100 µM: 8.53 ± 5.69%

## CC(=O)O[C@H]1CC[C@@]2(C)C(CC[C@]3(C)C2CC=C2C4[C@@H](C)[C@H](C)CC[C@]4(C(=O)Nc4ccccc4)CC[C@]23C)C1(C)C (some centres unmarked) [Compound 2]
Caco-2 cells
  inhibition at 100 µM: 5.02 ± 2.38%
